Experimental data taken from patent publication US11000604B2, “Reagent for site-selective bioconjugation of proteins or antibodies” (Research Foundation of the City University of New York, priority 2017, dated 2021).

Columns and labels:
Type in all cases: physicochemical
[1] = Reaction of PODS with model thiol Boc-L-cysteine (with TCEP); settings: pH 7.5, TCEP
Description: In order to study the reactivity of PODS with thiols, Boc-L-cysteine was used as a model thiol in conjunction with the mild reducing agent tris(2-carboxyethyl)phosphine (TCEP), whose role was the reduction of any latent cystine species in solution (FIG. 2).
(§1) The reaction between PODS and Boc-L-cysteine was quantitative in less than 2 minutes at pH 7.5. See FIG. 3A, FIG. 3B and FIG. 3C. In a move toward a model closer to proteins and peptides, a tripeptide containing a central cysteine—glutathione—was reacted with PODS as well. Again, the conjugation reaction reached completion before the first measurement could be acquired (<3 min at pH 7.5).

[2] = Reaction of PODS with glutathione; settings: pH 7.5
Description: as §1

[3] = Stability of PODS solutions in DMSO; settings: solution in DMSO, room temperature
Description: All intermediates were obtained in >95% purity using minimal equipment and simple procedures without chromatographic purifications. The methyl thioether 1 was obtained quantitatively via the methylation of the thiol with methyl iodide; unfortunately, we were not able to replace the use of the toxic methyl iodide with any safer reagent. The coupling between 1 and the carboxylic acid-bearing PEG chain was performed using EDCI as a coupling agent. Overnight reaction at room temperature led to the complete consumption of the starting material but also the formation of degradation products. It was possible to separate 2 from the two unidentified impurities by precipitating it with a mixture of ethyl acetate and cyclohexane. The oxidation of 2 was performed using the peracid mCPBA. This lead to the formation of the methylsulfone 3 with a yield of 90%. Finally, PODS was obtained from 3 after the quantitative deprotection of the terminal amine using a solution of trifluoroacetic acid in dichloromethane. Solutions of PODS in DMSO were stable at room temperature and have been kept at room temperature for 5 months without any noticeable signs of degradation.

time kept without any noticeable signs of degradation [3]: ≥ 5 months
Structure (SMILES): CS(=O)(=O)c1nnc(-c2ccc(NC(=O)CCC(=O)NCCCOCCOCCOCCCN)cc2)o1 [PODS, N^1-(3-(2-(2-(3-Aminopropoxy)ethoxy)ethoxy)propyl)-N′-(4-(5-(methylsulfonyl)-1,3,4 oxadiazol-2-yl)phenyl)succinamide]
time to quantitative reaction with Boc-L-cysteine [1]: less than 2 minutes
time to completion of conjugation reaction with glutathione [2]: < 3 min
